Measurements from patent US7803903B2, “Protein-binding doxorubicin peptide derivatives” (priority 2003, dated 2010).

Test system: A375 melanoma xenografts
Test: tumor growth of subcutaneously growing A375 melanoma xenografts
Type: in vivo, nacked mice
Settings: i.v.; doxorubicin 2×8 mg/kg on days 8 and 15; FIG. 5
Experimental: Animals: nacked mice; stock solution of doxorubicin (2 mg/ml); stock solution of 1:6 mg/ml in 10 mM sodium phosphate, 5% D-glucose (pH 6.4), control (buffer): glucose phosphate buffer (10 mM sodium phosphate, 5% D-glucose—pH 6.4) on days 8 and 15.

In the case of `COc1cccc2c1C(=O)c1c(O)c3c(c(O)c1C2=O)C[C@@](O)(C(=O)CO)C[C@@H]3O[C@H]1C[C@H](N)[C@H](O)[C@H](C)O1` [Doxorubicin, doxorubicin], the “relative tumor volume compared to treatment with the derivative according to the invention” value is reported as “approximately three times larger tumor volume”.
